The supplement of paper PMC8671470

test system: KCL-22; experiment: cell viability (% survival relative to DMSO control, bortezomib = 0%); higher = less cytotoxic; settings: 10 nM; 72 h
Procedure, shortened: (§1)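 In 384-well plates pre-printed with compounds at 1, 10, 100, 1000 or 10000 nM, duplicate wells received cells from 10 AML and 5 CML lines at densities within the linear growth range. The plates stayed at 37 °C with 5% CO2 for 72 h before CellTiter-Glo luminescence was recorded. Each entry is averaged percent survival. Scaling placed vehicle at 100% and a 10 µM positive control at 0%.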

SMILES	cell viability
COc1ccc(CNC(=O)Nc2ncc([N+](=O)[O-])s2)cc1	97.7%
CCOP(=O)(OCC)C(=Cc1cc(C(C)(C)C)c(O)c(C(C)(C)C)c1)P(=O)(OCC)OCC	108%
COc1ccc(-c2ccccc2)cc1NS(=O)(=O)c1cc(Cl)cc(Cl)c1O	92.8%
C[C@H](NC(=O)c1sccc1OCc1ccc(Cl)cc1)c1ccccc1	106%
O=C(O)c1cc(Cl)cc(Cl)c1O [3,5-Dichlorosalicylic Acid]	140%
O=C(O)C(=O)CBr [3-bromopyruvic acid]	75.3%
NS(=O)(=O)c1ccc([N+](=O)[O-])cc1 [4-Nitrobenzenesulfonamide]	101%
Cc1ccccc1C(C(=O)NC1CCCCC1)N(C(=O)Cn1ccnc1C)c1cccc(F)c1 (configuration not stated) [AGI-5198]	114%
CC(C)(C#N)c1cc(Cn2cncn2)cc(C(C)(C)C#N)c1 [Anastrozole]	91.6%
O=C(O)C1=CC(=C(c2ccc(O)c(C(=O)O)c2)c2ccc(O)c(C(=O)O)c2)C=CC1=O [Aurintricarboxylic acid]	94.8%

same assay, conditions: 100 nM; 72 h

SMILES	cell viability
CN(C)C(=O)[C@H](O)[C@H](Cc1ccccc1)NC(=O)c1cc2cc(Cl)ccc2[nH]1	108%
COc1ccc(CNC(=O)Nc2ncc([N+](=O)[O-])s2)cc1	104%
CCOP(=O)(OCC)C(=Cc1cc(C(C)(C)C)c(O)c(C(C)(C)C)c1)P(=O)(OCC)OCC	125%
COc1ccc(-c2ccccc2)cc1NS(=O)(=O)c1cc(Cl)cc(Cl)c1O	108%
C[C@H](NC(=O)c1sccc1OCc1ccc(Cl)cc1)c1ccccc1	97.8%
O=C(O)c1cc(Cl)cc(Cl)c1O [3,5-Dichlorosalicylic Acid]	87%
O=C(O)C(=O)CBr [3-bromopyruvic acid]	91.7%
NS(=O)(=O)c1ccc([N+](=O)[O-])cc1 [4-Nitrobenzenesulfonamide]	103%
Cc1ccccc1C(C(=O)NC1CCCCC1)N(C(=O)Cn1ccnc1C)c1cccc(F)c1 (configuration not stated) [AGI-5198]	132%
CC(C)(C#N)c1cc(Cn2cncn2)cc(C(C)(C)C#N)c1 [Anastrozole]	111%
O=C(O)C1=CC(=C(c2ccc(O)c(C(=O)O)c2)c2ccc(O)c(C(=O)O)c2)C=CC1=O [Aurintricarboxylic acid]	92%

same assay, conditions: 1000 nM; 72 h

SMILES	cell viability
CN(C)C(=O)[C@H](O)[C@H](Cc1ccccc1)NC(=O)c1cc2cc(Cl)ccc2[nH]1	105%
COc1ccc(CNC(=O)Nc2ncc([N+](=O)[O-])s2)cc1	102%
CCOP(=O)(OCC)C(=Cc1cc(C(C)(C)C)c(O)c(C(C)(C)C)c1)P(=O)(OCC)OCC	108%
COc1ccc(-c2ccccc2)cc1NS(=O)(=O)c1cc(Cl)cc(Cl)c1O	93.7%
C[C@H](NC(=O)c1sccc1OCc1ccc(Cl)cc1)c1ccccc1	84%
O=C(O)c1cc(Cl)cc(Cl)c1O [3,5-Dichlorosalicylic Acid]	94.7%
O=C(O)C(=O)CBr [3-bromopyruvic acid]	93.1%
NS(=O)(=O)c1ccc([N+](=O)[O-])cc1 [4-Nitrobenzenesulfonamide]	93.1%
Cc1ccccc1C(C(=O)NC1CCCCC1)N(C(=O)Cn1ccnc1C)c1cccc(F)c1 (configuration not stated) [AGI-5198]	111%
CC(C)(C#N)c1cc(Cn2cncn2)cc(C(C)(C)C#N)c1 [Anastrozole]	91.7%
O=C(O)C1=CC(=C(c2ccc(O)c(C(=O)O)c2)c2ccc(O)c(C(=O)O)c2)C=CC1=O [Aurintricarboxylic acid]	116%

same assay, conditions: 10000 nM; 72 h

SMILES	cell viability
CN(C)C(=O)[C@H](O)[C@H](Cc1ccccc1)NC(=O)c1cc2cc(Cl)ccc2[nH]1	91.6%
COc1ccc(CNC(=O)Nc2ncc([N+](=O)[O-])s2)cc1	79.7%
CCOP(=O)(OCC)C(=Cc1cc(C(C)(C)C)c(O)c(C(C)(C)C)c1)P(=O)(OCC)OCC	94%
COc1ccc(-c2ccccc2)cc1NS(=O)(=O)c1cc(Cl)cc(Cl)c1O	97.7%
C[C@H](NC(=O)c1sccc1OCc1ccc(Cl)cc1)c1ccccc1	65.6%
O=C(O)c1cc(Cl)cc(Cl)c1O [3,5-Dichlorosalicylic Acid]	85.9%
O=C(O)C(=O)CBr [3-bromopyruvic acid]	106%
NS(=O)(=O)c1ccc([N+](=O)[O-])cc1 [4-Nitrobenzenesulfonamide]	91.1%
Cc1ccccc1C(C(=O)NC1CCCCC1)N(C(=O)Cn1ccnc1C)c1cccc(F)c1 (configuration not stated) [AGI-5198]	104%
CC(C)(C#N)c1cc(Cn2cncn2)cc(C(C)(C)C#N)c1 [Anastrozole]	102%
O=C(O)C1=CC(=C(c2ccc(O)c(C(=O)O)c2)c2ccc(O)c(C(=O)O)c2)C=CC1=O [Aurintricarboxylic acid]	119%

test system: HL-60; experiment: as above; settings: 1 nM; 72 h
Procedure, shortened: as §1

SMILES	cell viability
CN(C)C(=O)[C@H](O)[C@H](Cc1ccccc1)NC(=O)c1cc2cc(Cl)ccc2[nH]1	85.4%
COc1ccc(CNC(=O)Nc2ncc([N+](=O)[O-])s2)cc1	108%
CCOP(=O)(OCC)C(=Cc1cc(C(C)(C)C)c(O)c(C(C)(C)C)c1)P(=O)(OCC)OCC	93.9%
COc1ccc(-c2ccccc2)cc1NS(=O)(=O)c1cc(Cl)cc(Cl)c1O	88.3%
C[C@H](NC(=O)c1sccc1OCc1ccc(Cl)cc1)c1ccccc1	90.6%
O=C(O)c1cc(Cl)cc(Cl)c1O [3,5-Dichlorosalicylic Acid]	106%
O=C(O)C(=O)CBr [3-bromopyruvic acid]	89.4%
NS(=O)(=O)c1ccc([N+](=O)[O-])cc1 [4-Nitrobenzenesulfonamide]	106%
Cc1ccccc1C(C(=O)NC1CCCCC1)N(C(=O)Cn1ccnc1C)c1cccc(F)c1 (configuration not stated) [AGI-5198]	107%
CC(C)(C#N)c1cc(Cn2cncn2)cc(C(C)(C)C#N)c1 [Anastrozole]	103%
O=C(O)C1=CC(=C(c2ccc(O)c(C(=O)O)c2)c2ccc(O)c(C(=O)O)c2)C=CC1=O [Aurintricarboxylic acid]	103%

same assay, conditions: 10 nM; 72 h

SMILES	cell viability
CN(C)C(=O)[C@H](O)[C@H](Cc1ccccc1)NC(=O)c1cc2cc(Cl)ccc2[nH]1	100%
COc1ccc(CNC(=O)Nc2ncc([N+](=O)[O-])s2)cc1	101%
CCOP(=O)(OCC)C(=Cc1cc(C(C)(C)C)c(O)c(C(C)(C)C)c1)P(=O)(OCC)OCC	94.9%
COc1ccc(-c2ccccc2)cc1NS(=O)(=O)c1cc(Cl)cc(Cl)c1O	77.6%
C[C@H](NC(=O)c1sccc1OCc1ccc(Cl)cc1)c1ccccc1	84.1%
O=C(O)c1cc(Cl)cc(Cl)c1O [3,5-Dichlorosalicylic Acid]	136%
O=C(O)C(=O)CBr [3-bromopyruvic acid]	109%
NS(=O)(=O)c1ccc([N+](=O)[O-])cc1 [4-Nitrobenzenesulfonamide]	111%
Cc1ccccc1C(C(=O)NC1CCCCC1)N(C(=O)Cn1ccnc1C)c1cccc(F)c1 (configuration not stated) [AGI-5198]	106%
CC(C)(C#N)c1cc(Cn2cncn2)cc(C(C)(C)C#N)c1 [Anastrozole]	99.7%
O=C(O)C1=CC(=C(c2ccc(O)c(C(=O)O)c2)c2ccc(O)c(C(=O)O)c2)C=CC1=O [Aurintricarboxylic acid]	87.8%

same assay, conditions: 100 nM; 72 h

SMILES	cell viability
CN(C)C(=O)[C@H](O)[C@H](Cc1ccccc1)NC(=O)c1cc2cc(Cl)ccc2[nH]1	108%
COc1ccc(CNC(=O)Nc2ncc([N+](=O)[O-])s2)cc1	115%
CCOP(=O)(OCC)C(=Cc1cc(C(C)(C)C)c(O)c(C(C)(C)C)c1)P(=O)(OCC)OCC	159%
COc1ccc(-c2ccccc2)cc1NS(=O)(=O)c1cc(Cl)cc(Cl)c1O	100%
C[C@H](NC(=O)c1sccc1OCc1ccc(Cl)cc1)c1ccccc1	106%
O=C(O)c1cc(Cl)cc(Cl)c1O [3,5-Dichlorosalicylic Acid]	84.5%
O=C(O)C(=O)CBr [3-bromopyruvic acid]	103%
NS(=O)(=O)c1ccc([N+](=O)[O-])cc1 [4-Nitrobenzenesulfonamide]	110%
Cc1ccccc1C(C(=O)NC1CCCCC1)N(C(=O)Cn1ccnc1C)c1cccc(F)c1 (configuration not stated) [AGI-5198]	99.5%
CC(C)(C#N)c1cc(Cn2cncn2)cc(C(C)(C)C#N)c1 [Anastrozole]	89.3%
O=C(O)C1=CC(=C(c2ccc(O)c(C(=O)O)c2)c2ccc(O)c(C(=O)O)c2)C=CC1=O [Aurintricarboxylic acid]	103%

same assay, conditions: 1000 nM; 72 h

SMILES	cell viability
CN(C)C(=O)[C@H](O)[C@H](Cc1ccccc1)NC(=O)c1cc2cc(Cl)ccc2[nH]1	174%
COc1ccc(CNC(=O)Nc2ncc([N+](=O)[O-])s2)cc1	95.6%
CCOP(=O)(OCC)C(=Cc1cc(C(C)(C)C)c(O)c(C(C)(C)C)c1)P(=O)(OCC)OCC	65.9%
COc1ccc(-c2ccccc2)cc1NS(=O)(=O)c1cc(Cl)cc(Cl)c1O	25.6%
C[C@H](NC(=O)c1sccc1OCc1ccc(Cl)cc1)c1ccccc1	35.7%
O=C(O)c1cc(Cl)cc(Cl)c1O [3,5-Dichlorosalicylic Acid]	117%
O=C(O)C(=O)CBr [3-bromopyruvic acid]	87.3%
NS(=O)(=O)c1ccc([N+](=O)[O-])cc1 [4-Nitrobenzenesulfonamide]	99.8%
Cc1ccccc1C(C(=O)NC1CCCCC1)N(C(=O)Cn1ccnc1C)c1cccc(F)c1 (configuration not stated) [AGI-5198]	102%
CC(C)(C#N)c1cc(Cn2cncn2)cc(C(C)(C)C#N)c1 [Anastrozole]	93.8%
O=C(O)C1=CC(=C(c2ccc(O)c(C(=O)O)c2)c2ccc(O)c(C(=O)O)c2)C=CC1=O [Aurintricarboxylic acid]	91.1%

same assay, conditions: 10000 nM; 72 h

SMILES	cell viability
CN(C)C(=O)[C@H](O)[C@H](Cc1ccccc1)NC(=O)c1cc2cc(Cl)ccc2[nH]1	89.1%
COc1ccc(CNC(=O)Nc2ncc([N+](=O)[O-])s2)cc1	104%
CCOP(=O)(OCC)C(=Cc1cc(C(C)(C)C)c(O)c(C(C)(C)C)c1)P(=O)(OCC)OCC	83.4%
COc1ccc(-c2ccccc2)cc1NS(=O)(=O)c1cc(Cl)cc(Cl)c1O	95.9%
C[C@H](NC(=O)c1sccc1OCc1ccc(Cl)cc1)c1ccccc1	56%
O=C(O)c1cc(Cl)cc(Cl)c1O [3,5-Dichlorosalicylic Acid]	93.5%
O=C(O)C(=O)CBr [3-bromopyruvic acid]	167%
NS(=O)(=O)c1ccc([N+](=O)[O-])cc1 [4-Nitrobenzenesulfonamide]	108%
Cc1ccccc1C(C(=O)NC1CCCCC1)N(C(=O)Cn1ccnc1C)c1cccc(F)c1 (configuration not stated) [AGI-5198]	116%
CC(C)(C#N)c1cc(Cn2cncn2)cc(C(C)(C)C#N)c1 [Anastrozole]	91.6%
O=C(O)C1=CC(=C(c2ccc(O)c(C(=O)O)c2)c2ccc(O)c(C(=O)O)c2)C=CC1=O [Aurintricarboxylic acid]	111%

test system: HEL; experiment: as above; settings: 1 nM; 72 h
Procedure, shortened: as §1

SMILES	cell viability
CN(C)C(=O)[C@H](O)[C@H](Cc1ccccc1)NC(=O)c1cc2cc(Cl)ccc2[nH]1	98.5%
COc1ccc(CNC(=O)Nc2ncc([N+](=O)[O-])s2)cc1	111%
CCOP(=O)(OCC)C(=Cc1cc(C(C)(C)C)c(O)c(C(C)(C)C)c1)P(=O)(OCC)OCC	92.1%
COc1ccc(-c2ccccc2)cc1NS(=O)(=O)c1cc(Cl)cc(Cl)c1O	106%
C[C@H](NC(=O)c1sccc1OCc1ccc(Cl)cc1)c1ccccc1	98.3%
O=C(O)c1cc(Cl)cc(Cl)c1O [3,5-Dichlorosalicylic Acid]	102%
O=C(O)C(=O)CBr [3-bromopyruvic acid]	90%
NS(=O)(=O)c1ccc([N+](=O)[O-])cc1 [4-Nitrobenzenesulfonamide]	105%
Cc1ccccc1C(C(=O)NC1CCCCC1)N(C(=O)Cn1ccnc1C)c1cccc(F)c1 (configuration not stated) [AGI-5198]	95.4%
CC(C)(C#N)c1cc(Cn2cncn2)cc(C(C)(C)C#N)c1 [Anastrozole]	92.8%
O=C(O)C1=CC(=C(c2ccc(O)c(C(=O)O)c2)c2ccc(O)c(C(=O)O)c2)C=CC1=O [Aurintricarboxylic acid]	108%

same assay, conditions: 10 nM; 72 h

SMILES	cell viability
CN(C)C(=O)[C@H](O)[C@H](Cc1ccccc1)NC(=O)c1cc2cc(Cl)ccc2[nH]1	102%
COc1ccc(CNC(=O)Nc2ncc([N+](=O)[O-])s2)cc1	98%
CCOP(=O)(OCC)C(=Cc1cc(C(C)(C)C)c(O)c(C(C)(C)C)c1)P(=O)(OCC)OCC	95.8%
COc1ccc(-c2ccccc2)cc1NS(=O)(=O)c1cc(Cl)cc(Cl)c1O	87.4%
C[C@H](NC(=O)c1sccc1OCc1ccc(Cl)cc1)c1ccccc1	101%
O=C(O)c1cc(Cl)cc(Cl)c1O [3,5-Dichlorosalicylic Acid]	111%
O=C(O)C(=O)CBr [3-bromopyruvic acid]	83.1%
NS(=O)(=O)c1ccc([N+](=O)[O-])cc1 [4-Nitrobenzenesulfonamide]	98.7%
Cc1ccccc1C(C(=O)NC1CCCCC1)N(C(=O)Cn1ccnc1C)c1cccc(F)c1 (configuration not stated) [AGI-5198]	104%
CC(C)(C#N)c1cc(Cn2cncn2)cc(C(C)(C)C#N)c1 [Anastrozole]	96.5%
O=C(O)C1=CC(=C(c2ccc(O)c(C(=O)O)c2)c2ccc(O)c(C(=O)O)c2)C=CC1=O [Aurintricarboxylic acid]	85.9%

same assay, conditions: 100 nM; 72 h

SMILES	cell viability
CN(C)C(=O)[C@H](O)[C@H](Cc1ccccc1)NC(=O)c1cc2cc(Cl)ccc2[nH]1	99.1%
COc1ccc(CNC(=O)Nc2ncc([N+](=O)[O-])s2)cc1	113%
